pEC50: −log10 of the molar value. Where two headings read alike, the source gives them in different places.

Data set [1] relates to stable HCV 1b RLuc replicon cells (dicistronic genotype 1b Con1 replicon). Kind of data set: Renilla luciferase HCV replicon reporter assay, genotype 1b. The format is cell-based. The conditions noted are these: Hepatitis C virus, 72 h, stable 1b Con1 RLuc replicon cells, 72 hours; read-out: 1b. The procedure, abridged: (§1)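 Cells carrying the stable or transiently transfected (Huh-Lunet) dicistronic RLuc replicons received 3-fold serial compound dilutions from 10 mM DMSO stocks. After 72 h, cells were lysed and Renilla luciferase read. DMSO served as the no-inhibition control and ITMN-191 above 100×EC50 as the positive control; EC50 by non-linear regression.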
A general note: Replicon systems follow genome replication, usually without infectious particles.

In data set [2] the test system is stable HCV 1a RLuc replicon cells (dicistronic genotype 1a H77 replicon). The experiment in a line: Renilla luciferase HCV replicon reporter assay, genotype 1a. The format is cell-based. The note with it: Hepatitis C virus, 72 h, stable 1a H77 RLuc replicon cells. The procedure, abridged:
as §1

In data set [3] the test system is stable HCV 2a JFH-1 Rluc replicon cells (L31 present in NS5A). The experiment in a line: Renilla luciferase HCV replicon reporter assay, genotype 2a JFH-1. The note with it: Hepatitis C virus; for EC50: read-out: 2a JFH (nM), genotype 2a JFH-1 replicon (L31 in NS5A), stable cells; for pEC50: read-out: 2a JFH, stable 2a JFH-1 Rluc replicon cells, L31 in NS5A, activity range. The format is cell-based. A digest of the protocol:
as §1

For data set [4], the system named is NS5A chimeric genotype 2a JFH-1 replicon with genotype 2a J6 strain NS5A gene (M31 present). The experiment in a line: Replicon assay, genotype 2a J6 NS5A chimera. The format is cell-based, HCV. The note with it: Hepatitis C virus; for pEC50: activity range. The procedure, abridged: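 Antiviral EC50 was determined in HCV replicon cells (stable RLuc lines for 1a H77, 1b Con1, 2a JFH-1 with NS5A L31; J6 NS5A chimera with M31) treated 72 h with compound. Renilla luciferase was then quantified.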

For data set [5], the system named is NS5A chimeric genotype 2a JFH-1 replicon with genotype 2b MD2b-1 strain NS5A gene (M31 present). The experiment in a line: Replicon assay, genotype 2b NS5A chimera. The format is cell-based, HCV. The conditions noted are these: Hepatitis C virus; for pEC50: activity range. The procedure, abridged: as §1
Data set [6] relates to NS5A chimeric genotype 1b Con1 replicon with genotype 3a S52 strain NS5A gene. Kind of data set: Replicon assay, genotype 3a NS5A chimera. The format is cell-based, HCV. The conditions noted are these: Hepatitis C virus; for EC50: read-out: 3a (s) (nM), genotype 3a NS5A chimeric replicon, stable replicon cells (s); for pEC50: read-out: 3a (s), (s), activity range.
Data set [7] relates to NS5A chimeric genotype 1b Con1 replicon with genotype 4a ED43 strain NS5A gene. Kind of data set: Replicon assay, genotype 4a NS5A chimera. The format is cell-based, HCV. The note with it: Hepatitis C virus; for EC50: read-out: 4a (s) (nM), genotype 4a NS5A chimeric replicon, stable replicon cells (s); for pEC50: read-out: 4a (s), (s), activity range.
Data set [8] in a line: IV and PO single dose pharmacokinetic studies in SD rats. The format is in vivo, male Sprague-Dawley (SD) rats. The note with it: Sprague-Dawley, rat, plasma, male SD rats, PO 2 mg/kg vs IV infusion 1 mg/kg, read-out: Rat % F. How it is done:
IV and PO Single Dose Pharmacokinetic Studies in SD Rats:
The pharmacokinetics of selected compounds was characterized in male Sprague-Dawley (SD) rats (250-300g). In this study, two groups of naïve purebred SD rats (N=3 per group, fasted over night) received the selected compound either as an intravenous (IV) infusion (1 mg/kg over 30 minutes) via the jugular vein or by oral gavage (2 mg/kg). The intravenous (IV) dosing vehicle was 5% ethanol, 35% polyethylene glycol 400 (PEG 400) and 60% water pH 2.0. The oral dosing vehicle was 5% ethanol, 55% PEG 400 and 40% citrate buffer pH 2.2.
Serial blood samples (approximately 0.3 mL each) were collected from jugular vein or other suitable vein at specified time points. For the IV infusion group, the blood samples were collected predose and at 0.25, 0.48, 0.58, 0.75, 1.5, 3, 6, 8, 12 and 24 hours after the start of infusion. For the oral group, the blood samples were collected predose and at 0.25, 0.50, 1, 2, 4, 6, 8, 12 and 24 hours after dosing. The blood samples were collected into VacutainerγM tubes containing EDTA-K3 as the anti-coagulant and were centrifuged at approximately 4° C. to obtain plasma. The plasma samples were stored at −20° C. until analysis by LC/MS/MS.
A bioanalytical method utilizing high performance liquid chromatography coupled to tandem mass spectrometry (LC/MS/MS) was developed for analysis of the selected compound in rat plasma. Detection was performed using selected reaction monitoring (SRM); Ions representing the precursor (M+H)^+ species was selected in quadrupole 1 (Q1) and collided with argon gas in the collision cell (Q2) to generate specific product ion, which was subsequently monitored by quadrupole 3 (Q3). Standard curve and quality control samples were prepared in male rat plasma and processed in the same way as the test samples to generate quantitative data.
Pharmacokinetic parameters were generated using non-compartmental pharmacokinetic analysis (Phoenix WinNonlin, version 6.3). Values below the lower limit of quantification (LLOQ) were assigned a value of zero if predose and treated as missing thereafter. Area under the curve (AUC) was calculated using the linear trapezoidal rule. The oral bioavailability (% F) was determined by comparison of the area under the curve (AUC) of the compound and/or a metabolite generated in plasma following oral administration to that generated following intravenous administration.

Where [9] appears, read: read-out: 2a J6 (t) (nM), genotype 2a J6 NS5A chimeric replicon (M31), transiently transfected (t) into Huh-Lunet cells.
Setting [10] is: read-out: 2a J6 (t), transiently transfected (t) into Huh-Lunet cells.
The mark [11] stands for this setting: 2BS, read-out: 2b (s), stably replicating replicon cells (s).
The mark [12] stands for this setting: read-out: 2b (s) (nM), genotype 2b MD2b-1 NS5A chimeric replicon (M31), stably replicating replicon cells (s).

Take `COC(=O)N[C@H](C(=O)N1C[C@@H](C)C[C@H]1c1nc2ccc3cc4c(cc3c2[nH]1)OCc1cc(-c2cnc([C@@H]3CC[C@H](C)N3C(=O)[C@@H](NC(=O)OC)[C@@H](C)OC)[nH]2)ccc1-4)[C@@H](C)OC` [DY, Methyl [(2S,3R)-3-methoxy-1-{(2S,5S)-2-[9-(2-{(2S,5S)-1-[N-(methoxycarbonyl)-O-methyl-L-threonyl]-5-methylpyrrolidin-2-yl}-1H-imidazol-5-yl)-1,11-dihydroisochromeno[4′,3′:6,7]naphtho[1,2-d]imidazol-2-yl]-4-methylpyrrolidin-1-yl}-1-oxobutan-2-yl]carbamate]: the pEC50 in data set [1] was 10.19; in data set [2] it was 10.36; in data set [2] (activity range), > 10.00; in data set [3], > 10.00; in data set [4] (setting [10]), > 10.00; in data set [5] (setting [11]), 9.00 to 10.00. For the same compound, the pEC50 is > 10.00 in data set [5] (read-out: 2b (t), transiently transfected (t) into Huh-Lunet cells); 9.00 to 10.00 in data set [6]; > 10.00 in data set [7]. Moreover, the EC50 in data set [3] turned out to be 0.028 nM; in data set [4] (setting [9]), 0.047 nM; in data set [5] (setting [12]), 0.199 nM; in data set [5] (read-out: 2b (t) (nM), genotype 2b MD2b-1 NS5A chimeric replicon (M31), transiently transfected (t)) it was 0.083 nM; in data set [6], 0.13 nM; in data set [7] it was 0.035 nM. For the same compound, the bioavailability in data set [8] is 8.3%.
With `COC(=O)N[C@H](C(=O)N1C[C@@H](C)C[C@H]1c1nc2ccc3cc4c(cc3c2[nH]1)OCc1cc(-c2cnc([C@@H]3CC[C@H](C)N3C(=O)[C@@H](NC(=O)OC)[C@@H](C)OC)[nH]2)ccc1-4)C(C)C` [GA], the pEC50 in data set [1] is 10.46; in data set [2] it was 10.72; in data set [2] (activity range), > 10.00; in data set [3], > 10.00; in data set [4] (setting [10]), > 10.00; in data set [5] (setting [11]), 9.00 to 10.00. Further, the pEC50 in data set [6] and in data set [7] was > 10.00 throughout. The EC50 came out at 0.018 nM in data set [3]; 0.064 nM in data set [4] (setting [9]); 0.245 nM in data set [5] (setting [12]); 0.063 nM in data set [6]; 0.016 nM in data set [7]. Further, the bioavailability in data set [8] was 3.2%.
For the compound `CC[C@H]1CC[C@@H](c2ncc(-c3ccc4c(c3)COc3cc5c(ccc6nc([C@@H]7CC[C@H](CC)N7C(=O)[C@@H](NC(=O)OC)C7CCOCC7)[nH]c65)cc3-4)[nH]2)N1C(=O)[C@@H](NC(=O)OC)C(C)C` [IG], the pEC50 in data set [1] was 10.46; in data set [2] it was 10.57; in data set [2] (activity range) it was > 10.00; in data set [3], > 10.00; in data set [4] (setting [10]) it was 9.00 to 10.00; in data set [5] (setting [11]), 9.00 to 10.00. In addition, the pEC50 was 9.00 to 10.00 in data set [6] and > 10.00 in data set [7]. For the same compound, the EC50 in data set [3] was 0.034 nM; in data set [4] (setting [9]), 0.122 nM; in data set [5] (setting [12]), 0.25 nM; in data set [6], 0.787 nM; in data set [7], 0.025 nM. For the same compound, the bioavailability in data set [8] turned out to be 28.2%.
For the compound `CC[C@H]1CC[C@@H](c2nc3ccc4cc5c(cc4c3[nH]2)OCc2cc(-c3cnc([C@@H]4C[C@@H]6CCC[C@@H]6N4C(=O)[C@@H](NC(=O)OC)C(C)C)[nH]3)ccc2-5)N1C(=O)[C@@H](NC(=O)OC)C1CCOCC1` [IU], the pEC50 in data set [1] is 10.66; in data set [2], 10.80; in data set [2] (activity range), > 10.00; in data set [3], > 10.00; in data set [4] (read-out: 2a J6 (s), stably replicating replicon cells (s)), > 10.00; in data set [5] (setting [11]) it was 9.00 to 10.00. The pEC50 in data set [6] and in data set [7] was > 10.00 throughout. In addition, the EC50 amounted to 0.02 nM in data set [3]; 0.028 nM in data set [4] (read-out: 2a J6 (s) (nM), genotype 2a J6 NS5A chimeric replicon (M31), stably replicating replicon cells (s)); 0.119 nM in data set [5] (setting [12]); 0.098 nM in data set [6]; 0.004 nM in data set [7]. The bioavailability in data set [8] is 26.5%.

For the origin of these results see US10800789B2, “Antiviral compounds” (Gilead Pharmasset LLC, priority 2012, dated 2020).
